Source: patent US20150105252A1, “SUBSTITUTED PYRAZOLES AS HERBICIDES” (E I DU PONT DE NEMOURS AND COMPANY, priority 2013, published 2015)

Tests used:
barnyardgrass [1] = experiment: Test A preemergence; format: in vivo, Echinochloa crus-galli; settings: 0 to 100 scale
How it was run: (§1)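 After sowing in a sand–loam mix, pots received compound preemergence by directed soil spray, or postemergence once plants reached the one- to two-leaf stage (2–10 cm). Formulation contained surfactant in a non-phytotoxic solvent. Injury was scored visually after ~10 greenhouse days, 0–100 scale.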

oat, wild = experiment: Test C postemergence; format: in vivo, Avena fatua; settings: for Plant response rating (scale of 0 to 100 where 0 is no effect and 100 is complete control), Oat, Wild: 31 g ai/ha, visually evaluated after 13 to 15 days; for Oat, Wild plant response rating / Plant response rating, Oat, Wild: postemergence; for Oat, Wild plant response rating: 62 g ai/ha, scale 0 to 100
How it was run: (§2)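 In this greenhouse assay, seeded soil (loam plus sand) or emerged seedlings in peat-vermiculite medium were treated with formulated compound. Roughly two weeks later (13–15 days), each species was scored visually relative to controls, from 0 for no effect to 100 for complete control.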

barnyardgrass [2] = experiment: Test A postemergence; format: in vivo, Echinochloa crus-galli; settings: Postemergence
How it was run: as §1

nutsedge, yellow = experiment: Test C preemergence; format: in vivo, Cyperus esculentus
How it was run: as §2

crabgrass, large [3] = experiment: Test A postemergence; format: in vivo, Digitaria sanguinalis
How it was run: as §1

crabgrass, large [4] = experiment: Test C preemergence; format: in vivo, Digitaria sanguinalis
How it was run: as §2

pigweed = experiment: Test A postemergence; format: in vivo, Amaranthus retroflexus
How it was run: as §1

soybean = experiment: Test C postemergence; format: in vivo, Glycine max; settings: for Plant response rating (scale of 0 to 100 where 0 is no effect and 100 is complete control), Soybean: 31 g ai/ha, visually evaluated after 13 to 15 days; for Soybean plant response rating / Plant response rating, Soybean: postemergence; for Soybean plant response rating: 62 g ai/ha, scale 0 to 100
How it was run: as §2

corn = experiment: Test A postemergence; format: in vivo, Zea mays
How it was run: as §1

ryegrass, Italian = experiment: Test C postemergence; format: in vivo, Lolium multiflorum; settings: for Plant response rating (scale of 0 to 100 where 0 is no effect and 100 is complete control), Ryegrass, Italian: 31 g ai/ha, visually evaluated after 13 to 15 days; for Ryegrass, Italian plant response rating / Plant response rating, Ryegrass, Italian: postemergence; for Ryegrass, Italian plant response rating: 62 g ai/ha, scale 0 to 100
How it was run: as §2

velvetleaf = experiment: Test C preemergence; format: in vivo, Abutilon theophrasti
How it was run: as §2

kochia = experiment: Test C postemergence; format: in vivo, Kochia scoparia; settings: for Plant response rating (scale of 0 to 100 where 0 is no effect and 100 is complete control), Kochia: 31 g ai/ha, visually evaluated after 13 to 15 days; for Kochia plant response rating / Plant response rating, Kochia: postemergence; for Kochia plant response rating: 62 g ai/ha, scale 0 to 100
How it was run: as §2

barnyardgrass [5] = experiment: Test C preemergence; format: in vivo, Echinochloa crus-galli
How it was run: as §2

morningglory = experiment: Test A postemergence; format: in vivo, Ipomoea spp.
How it was run: as §1

oilseed rape = experiment: Test C postemergence; format: in vivo, Brassica napus; settings: for Plant response rating (scale of 0 to 100 where 0 is no effect and 100 is complete control), Oilseed Rape: 31 g ai/ha, visually evaluated after 13 to 15 days; for Oilseed Rape plant response rating / Plant response rating, Oilseed Rape: postemergence; for Oilseed Rape plant response rating: 62 g ai/ha, scale 0 to 100
Text: Seeds of plant species selected from blackgrass (Alopecurus myosuroides), ryegrass, Italian (Italian ryegrass, Lolium multiflorum), wheat (winter wheat, Triticum aestivum), galium (catchweed bedstraw, Galium aparine), corn (Zea mays), crabgrass, large (large crabgrass, Digitaria sanguinalis), foxtail, giant (giant foxtail, Setaria faberii), johnsongrass (Sorghum halepense), lambsquarters (Chenopodium album), morningglory (Ipomoea coccinea), nutsedge, yellow (yellow nutsedge, Cyperus esculentus), pigweed (redroot pigweed, Amaranthus retroflexus), ragweed (common ragweed, Ambrosia elation), soybean (Glycine max), barnyardgrass (Echinochloa crus-galli), oilseed rape (Brassica napus), waterhemp (common waterhemp, Amaranthus rudis), oat, wild (wild oat, Avena fatua), kochia (Kochia scoparia), Surinam grass (Brachiaria decumbens), foxtail, green (green foxtail, Setaria viridis), goosegrass (Eleusine indica), bromegrass, downy (downy bromegrass, Bromus tectorum), nightshade (eastern black nightshade, Solanum ptycanthum), cocklebur (common cocklebur, Xanthium strumarium), cupgrass, woolly (woolly cupgrass, Eriochloa villosa), bermudagrass (Cynodon dactylon), sunflower, (common oilseed sunflower, Helianthus annuus), Russian thistle (Salsola kali), and velvetleaf (Abutilon theophrasti) were planted into a blend of loam soil and sand and treated preemergence with test chemicals formulated in a non-phytotoxic solvent mixture which included a surfactant.
At the same time, plants selected from these crop and weed species and also chickweed (common chickweed, Stellaria media), canarygrass (littleseed canarygrass, Phalaris minor), and deadnettle (henbit deadnettle, Lamium amplexicaule), were planted in pots containing Redi-Earth® planting medium (Scotts Company, 14111 Scottslawn Road, Marysville, Ohio 43041) comprising spaghnum peat moss, vermiculite, wetting agent and starter nutrients and treated with postemergence applications of test chemicals formulated in the same manner. Plants ranged in height from 2 to 18 cm (1- to 4-leaf stage) for postemergence treatments. Treated plants and controls were maintained in a greenhouse for 13 to 15 days, after which time all species were compared to controls and visually evaluated. Plant response ratings, summarized in Table C, are based on a scale of 0 to 100 where 0 is no effect and 100 is complete control. A dash (-) response means no test result.

[6] = Preemergence, 500 g ai/ha, 0 no effect, 100 complete control
[7] = preemergence, 125 g ai/ha, visual injury, approx. 10 days
[8] = 250 g ai/ha, scale 0 to 100 (0 no effect, 100 complete control)
[9] = 125 g ai/ha, scale 0 to 100, 0 no effect, 100 complete control
[10] = 125 g ai/ha, 0 to 100 scale, 0 no effect, 100 complete control
[11] = 500 g ai/ha, visual rating after approx. 10 days, 0 to 100 scale (0 no effect, 100 complete control)
[12] = preemergence, 31 g ai/ha, scale 0 to 100 (0 no effect, 100 complete control), 13 to 15 days
[13] = preemergence, 62 g ai/ha, 13 to 15 days, scale 0 to 100, 0 = no effect, 100 = complete control
[14] = preemergence, 125 g ai/ha, scale 0 to 100, 0 is no effect, 100 is complete control
[15] = Postemergence, 500 g ai/ha, visual rating after approx. 10 days, 0 to 100 scale (0 no effect, 100 complete control)
[16] = postemergence, 125 g ai/ha, about 10 days, visual rating on 0 to 100 scale (0 no effect, 100 complete control)
[17] = Preemergence, 16 g ai/ha, scale 0 to 100

CCc1cc(C(=O)NC2CC2)nn1Cc1ccnc(C(F)(F)F)c1 [Compound 76]
Barnyardgrass plant response rating (barnyardgrass [1]; [6]): 100 | Barnyardgrass plant response rating (barnyardgrass [1]; [7]): 80 | Plant response rating (scale of 0 to 100 where 0 is no effect and 100 is complete control), Oat, Wild (oat, wild; Postemergence): 5 | Oat, Wild plant response rating (oat, wild): 5 | Plant response rating, Oat, Wild (oat, wild; [8]): 25 | Plant response rating, Oat, Wild (oat, wild; [9]): 5 | Barnyardgrass plant response rating (barnyardgrass [2]; [10]): 80 | Barnyardgrass plant response rating (barnyardgrass [2]; [11]): 90 | Plant response rating (scale of 0 to 100), Nutsedge, Yellow (nutsedge, yellow; Preemergence, 250 g ai/ha): 98 | Nutsedge, Yellow plant response rating (nutsedge, yellow; [12]): 40 | Plant response rating, Nutsedge, Yellow (nutsedge, yellow; [13]): 70 | Nutsedge, Yellow plant response rating (nutsedge, yellow; [14]): 90 | Crabgrass, Large plant response rating (crabgrass, large [3]; [15]): 100 | Crabgrass, Large plant response rating (crabgrass, large [3]; [16]): 80 | Plant response rating (scale of 0 to 100), Crabgrass, Large (crabgrass, large [4]; Preemergence, 250 g ai/ha): 100 | Crabgrass, Large plant response rating (crabgrass, large [4]; [12]): 100 | Plant response rating, Crabgrass, Large (crabgrass, large [4]; [13]): 100 | Crabgrass, Large plant response rating (crabgrass, large [4]; [14]): 100 | Pigweed plant response rating (pigweed; [15]): 100 | Pigweed plant response rating (pigweed; [16]): 100 | Plant response rating (scale of 0 to 100 where 0 is no effect and 100 is complete control), Soybean (soybean; Postemergence): 65 | Soybean plant response rating (soybean): 75 | Plant response rating, Soybean (soybean; [8]): 98 | Plant response rating, Soybean (soybean; [9]): 95 | Corn plant response rating (corn; [15]): 90 | Corn plant response rating (corn; [16]): 80 | Plant response rating (scale of 0 to 100 where 0 is no effect and 100 is complete control), Ryegrass, Italian (ryegrass, Italian; Postemergence): 5 | Ryegrass, Italian plant response rating (ryegrass, Italian): 5 | Plant response rating, Ryegrass, Italian (ryegrass, Italian; [8]): 10 | Plant response rating, Ryegrass, Italian (ryegrass, Italian; [9]): 5 | Plant response rating (scale of 0 to 100), Velvetleaf (velvetleaf; Preemergence, 250 g ai/ha): 100 | Velvetleaf plant response rating (velvetleaf; [12]): 75 | Plant response rating, Velvetleaf (velvetleaf; [13]): 85 | Velvetleaf plant response rating (velvetleaf; [14]): 100 | Plant response rating (scale of 0 to 100 where 0 is no effect and 100 is complete control), Kochia (kochia; Postemergence): 75 | Kochia plant response rating (kochia): 90 | Plant response rating, Kochia (kochia; [8]): 90 | Plant response rating, Kochia (kochia; [9]): 90 | Plant response rating (scale of 0 to 100), Barnyardgrass (barnyardgrass [5]; Preemergence, 250 g ai/ha): 100 | Barnyardgrass plant response rating (barnyardgrass [5]; [12]): 95 | Plant response rating, Barnyardgrass (barnyardgrass [5]; [13]): 100 | Barnyardgrass plant response rating (barnyardgrass [5]; [14]): 100 | Morningglory plant response rating (morningglory; [15]): 100 | Morningglory plant response rating (morningglory; [16]): 70 | Plant response rating (scale of 0 to 100 where 0 is no effect and 100 is complete control), Oilseed Rape (oilseed rape; Postemergence): 30 | Oilseed Rape plant response rating (oilseed rape): 35 | Plant response rating, Oilseed Rape (oilseed rape; [8]): 60 | Plant response rating, Oilseed Rape (oilseed rape; [9]): 55

CCONC(=O)c1cc(CC)n(Cc2ccnc(C(F)(F)F)c2)n1 [Compound 77]
Barnyardgrass plant response rating (barnyardgrass [1]; [6]): 100 | Barnyardgrass plant response rating (barnyardgrass [1]; [7]): 90 | Plant response rating (scale of 0 to 100), Oat, Wild (oat, wild; Postemergence, 16 g ai/ha): 5 | Plant response rating (scale of 0 to 100 where 0 is no effect and 100 is complete control), Oat, Wild (oat, wild; Postemergence): 5 | Oat, Wild plant response rating (oat, wild): 5 | Plant response rating, Oat, Wild (oat, wild; [9]): 5 | Barnyardgrass plant response rating (barnyardgrass [2]; [10]): 50 | Barnyardgrass plant response rating (barnyardgrass [2]; [11]): 100 | Plant response rating, Nutsedge, Yellow (nutsedge, yellow; [17]): 10 | Nutsedge, Yellow plant response rating (nutsedge, yellow; [12]): 10 | Plant response rating, Nutsedge, Yellow (nutsedge, yellow; [13]): 25 | Nutsedge, Yellow plant response rating (nutsedge, yellow; [14]): 60 | Crabgrass, Large plant response rating (crabgrass, large [3]; [15]): 100 | Crabgrass, Large plant response rating (crabgrass, large [3]; [16]): 90 | Plant response rating, Crabgrass, Large (crabgrass, large [4]; [17]): 60 | Crabgrass, Large plant response rating (crabgrass, large [4]; [12]): 85 | Plant response rating, Crabgrass, Large (crabgrass, large [4]; [13]): 100 | Crabgrass, Large plant response rating (crabgrass, large [4]; [14]): 100 | Pigweed plant response rating (pigweed; [15]): 100 | Pigweed plant response rating (pigweed; [16]): 100 | Plant response rating (scale of 0 to 100), Soybean (soybean; Postemergence, 16 g ai/ha): 10 | Plant response rating (scale of 0 to 100 where 0 is no effect and 100 is complete control), Soybean (soybean; Postemergence): 10 | Soybean plant response rating (soybean): 25 | Plant response rating, Soybean (soybean; [9]): 35 | Corn plant response rating (corn; [15]): 40 | Corn plant response rating (corn; [16]): 30 | Plant response rating (scale of 0 to 100), Ryegrass, Italian (ryegrass, Italian; Postemergence, 16 g ai/ha): 0 | Plant response rating (scale of 0 to 100 where 0 is no effect and 100 is complete control), Ryegrass, Italian (ryegrass, Italian; Postemergence): 5 | Ryegrass, Italian plant response rating (ryegrass, Italian): 5 | Plant response rating, Ryegrass, Italian (ryegrass, Italian; [9]): 5 | Plant response rating, Velvetleaf (velvetleaf; [17]): 30 | Velvetleaf plant response rating (velvetleaf; [12]): 35 | Plant response rating, Velvetleaf (velvetleaf; [13]): 60 | Velvetleaf plant response rating (velvetleaf; [14]): 100 | Plant response rating (scale of 0 to 100), Kochia (kochia; Postemergence, 16 g ai/ha): 40 | Plant response rating (scale of 0 to 100 where 0 is no effect and 100 is complete control), Kochia (kochia; Postemergence): 40 | Kochia plant response rating (kochia): 45 | Plant response rating, Kochia (kochia; [9]): 70 | Plant response rating, Barnyardgrass (barnyardgrass [5]; [17]): 10 | Barnyardgrass plant response rating (barnyardgrass [5]; [12]): 20 | Plant response rating, Barnyardgrass (barnyardgrass [5]; [13]): 75 | Barnyardgrass plant response rating (barnyardgrass [5]; [14]): 100 | Morningglory plant response rating (morningglory; [15]): 90 | Morningglory plant response rating (morningglory; [16]): 100 | Plant response rating (scale of 0 to 100), Oilseed Rape (oilseed rape; Postemergence, 16 g ai/ha): 5 | Plant response rating (scale of 0 to 100 where 0 is no effect and 100 is complete control), Oilseed Rape (oilseed rape; Postemergence): 5 | Oilseed Rape plant response rating (oilseed rape): 5 | Plant response rating, Oilseed Rape (oilseed rape; [9]): 15
